Measured values: US20130150598A1, “USE OF 25-HYDROXY-VITAMIN D3 TO AFFECT HUMAN MUSCLE PHYSIOLOGY” (DSM IP ASSETS B.V., priority 2008, published 2013)

Assays:
[1] = system: gastrocnemius muscle gene expression (mRNA); assay: Gene chip analysis of gastrocnemius muscle in hindlimb unloaded (tail suspension) skeletal muscle atrophy model; format: in vivo, BalbC mice; details: for Differentially expressed muscle genes compared to HU: selected skeletal muscle genes
Source text: Initially this model was established in rats for simulating spaceflight in humans and is commonly used in other scientific fields to study the loss of skeletal muscle mass or bone. The results are considered indicative of human conditions such as sarcopenia (degenerative loss of skeletal muscle mass and strength during the process of ageing) or immobilization of skeletal muscle (e.g. after prolonged bed rest due to fractures, surgery or trauma). Methods For our study, nine month old BalbC female mice were randomized at the beginning of the study into four groups with 10 animals per group • 1. […] The animals were placed in special cages for duration of seven days; all mice were housed separately and had free access to feed and water ad libidum. […] At the end of the study the gastrocnemius muscle was taken out and directly frozen in liquid nitrogen for further analysis. […] Total RNA was isolated using the commonly used Trizol protocol. The RNA was quantified by using spectrophotometric analysis. The integrity of total RNA samples was also assessed qualitatively on an Agilent 2100 Bioanalyzer. RNA was then prepared for the one cycle cDNA synthesis. A poly-A RNA control is used for this step to provide exogenous positive controls to monitor the entire eukaryotic target labelling process. The first cDNA synthesis is done, and after the second strand cDNA synthesis the cDNA is cleaned up of double-stranded cDNA. A biotin labelled cRNA is then synthesised, cleaned up and quantified using a spectrophotometer at 260/280 nm. It is important that cRNA target is fragmented before hybridization onto a GeneChip probe arrays to obtain optimal assay sensitivity. After fragmentation the probes are hybridized on the chips (Affymetrix Mouse 430-2 chips). The chips are washed and stained in the fluidics station of Affymetrix and scanned in the gene chip scanner. The data is then transferred from the scanner for further analysis using software from Genedata (Expressionist 5.0: […] Analyst). Data interpretation and pathway analysis was done with the online version of the GeneGo Metacore package ([…] evaluates microarray data for quality issues and flags problematic measurements. It provides a set of normalization algorithms and validated condensing methods to automatically pre-process and summarize raw microarray data for subsequent statistical analysis.

[2] = system: healthy, postmenopausal women; assay: Clinical trial: muscle strength (knee extensor and flexor strength); format: in vivo, human; details: 4 months; for Muscle strength, knee extension (best value), change vs. baseline / Muscle strength, knee extension (mean value), change vs. baseline / Muscle strength, knee flexion (best value), change vs. baseline / Muscle strength, knee flexion (mean value), change vs. baseline: daily 20 μg per day / weekly 140 μg per week, oral
Source text: (§1) Each group included five subjects. They are followed for four months in Zurich, Switzerland during the winter.
(§2) Equimolar quantities of both substances were investigated. […] As the maximum pre-existing baseline concentration of 25-OH D3 will be 50 nmol/L, it is not anticipated that subjects will approach the range where disturbance in Ca^2+ homeostasis has been observed.
(§3) Each dosage is consumed orally at breakfast. The duration of the study is four months for the “Daily” and “Weekly” groups. Subjects enrolled in the “Bolus” group consume orally a single dosage at the second study visit.
(§4) Muscle strength and function were assessed by the following standard performance tests: knee flexor and extensor strength, repeated sit-to-stand test and timed up & go (TUG) in Week 1 on visit 2 (baseline) and at study end on visit 15. Muscle strength was measured as knee extensor and flexor in Newtons (kiloponds). TUG is a measure of functional mobility including muscle strength, gait speed, and balance and is assessed in seconds. The repeated sit-to-stand is a functional test and measured in seconds.

C57BL/6J mice = assay: Muscle hypertrophy model (gastrocnemius removal) and endurance exercise capacity test; format: in vivo
Source text: The objective of this study was to test the effects of 25-OH D3 in a muscle hypertrophy model and in an endurance exercise capacity test in C57BL/6J mice. It is recognized in the art that removal of the gastrocnemius muscle induces compensatory hypertrophy in the soleus and plantaris muscles by multiple mechanisms leading to improved muscle strength and leg power.
Two groups of 10 animals were anesthetized and the left hindlimb of the animals was fixed. All animals received an analgesic. A small incision was made through the skin over the gastrocnemius muscle. The complete gastrocnemius muscle and the tendons were exposed. Both heads of the gastrocnemius muscle were carefully dissected from the underlying intact muscles and care was taken not to rupture nerves and vessels. The skin was closed with a silk suture and the animals were returned into the cages. After recovering from anesthesia the animals could move directly without problems in their cages. Animals were treated for three weeks by gavage with 25-OH D3 at a daily dosage of 50 μg/kg and the control group received vehicle. At the end of the study endurance exercise capacity of all animals was tested on a rodent treadmill.

[3] = system: healthy, postmenopausal women; assay: Clinical trial: muscle function (repeated sit-to-stand, timed up & go); format: in vivo, human; details: for Muscle function, repeated sit-to-stand, change vs. baseline / Muscle function, timed-up-and-go, change vs. baseline: daily 20 μg per day / weekly 140 μg per week, oral
Source text: as §1, §2, §3, §4

[4] = at the safe upper level of 250 μg/day; cited from earlier work
[5] = GLM least square means, % improvement adjusted for baseline strength, age, BMI
[6] = GLM least square means, % time needed adjusted for baseline function, age, BMI, 4 months

C=C1CC[C@H](O)C/C1=C/C=C1\CCC[C@]2(C)[C@@H]([C@H](C)CCCC(C)(C)O)CC[C@@H]12 [25-OH D3, 25-hydroxyvitamin D3]
Share of the group's differentially expressed probe sets also differentially expressed in 25-OH D3+Vitamin D3 group ([1]; Venn overlap, FIG. 2 / FIG. 3): ~61% | Differentially expressed muscle genes compared to HU [1]: Desmin; dystonin; myocyte enhancer factor 2A; | Muscle strength, knee extension (best value), change vs. daily/weekly Vitamin D3 [2, 5]: 17.6% | Muscle strength, knee extension (mean value), change vs. daily/weekly Vitamin D3 [2, 5]: 17.0% | Muscle strength, knee flexion (best value), change vs. daily/weekly Vitamin D3 [2, 5]: 4.7% | Muscle strength, knee flexion (mean value), change vs. daily/weekly Vitamin D3 [2, 5]: 3.1% | Muscle strength, knee extension (best value), change vs. baseline [2]: 13.6 Newton | Muscle strength, knee extension (mean value), change vs. baseline [2]: 13.0 Newton | Muscle strength, knee flexion (best value), change vs. baseline [2]: 7.2 Newton | Muscle strength, knee flexion (mean value), change vs. baseline [2]: 7.9 Newton | Soleus-Plantaris muscle weight/body weight (C57BL/6J mice; 50 μg/kg/day gavage, 3 weeks, control 1.82): 1.94 mg/g | Soleus wet weight (C57BL/6J mice; 50 μg/kg/day gavage, 3 weeks, control 5.25): 6.37 mg | Plantaris wet weight (C57BL/6J mice; 50 μg/kg/day gavage, 3 weeks, control 31.68): 33.24 mg | Muscle cross-sectional area (C57BL/6J mice; computer tomography, 50 μg/kg/day, 3 weeks, control 19.90): 20.98 mm^2 | Total leg cross-sectional area (C57BL/6J mice; computer tomography, 50 μg/kg/day, 3 weeks, control 22.78): 24.04 mm^2 | Skeletal mass by computer tomography of muscle and total leg area (C57BL/6J mice; in words): increases skeletal mass | Soleus-plantaris muscle weight/body weight ratio compared to control (C57BL/6J mice; in words): increased | Wet weight of the soleus and plantaris muscles compared to control animals (C57BL/6J mice; in words): increased | Endurance exercise capacity compared to control mice (C57BL/6J mice; in words, longer running distance and time): increased endurance exercise capacity | Running time (C57BL/6J mice; rodent treadmill, 50 μg/kg/day, 3 weeks, control 37.6): 41.0 min | Running distance (C57BL/6J mice; rodent treadmill, 50 μg/kg/day, 3 weeks, control 986.0): 1078.4 m | Muscle function, repeated sit-to-stand, change vs. daily/weekly Vitamin D3 [3, 6]: 13.9% | Muscle function, timed-up-and-go, change vs. daily/weekly Vitamin D3 [3, 6]: 8.4% | Muscle function, repeated sit-to-stand, change vs. baseline ([3]; 4 months): 0.63 s | Muscle function, timed-up-and-go, change vs. baseline ([3]; 4 months): 0.27 s | Likelihood of maintaining or improving lower extremity strength and function compared to Vitamin D3 ([3]; unadjusted analysis across four lower extremity tests): 2.8 fold

C=C1CC[C@H](O)C/C1=C/C=C1\CCC[C@]2(C)[C@@H]([C@H](C)CCCC(C)C)CC[C@@H]12 [Vitamin D3, cholecalciferol]
Differentially expressed probe sets for genes against HU control group ([1]; 50 μg/kg/bw each, gavage twice, 7 days hindlimb unloading, Affymetrix Mouse 430-2): 385 | Number of the group's differentially expressed probe sets also differentially expressed in 25-OH D3+Vitamin D3 group ([1]; Venn overlap, FIG. 2 / FIG. 3): 177 | Share of the group's differentially expressed probe sets also differentially expressed in 25-OH D3+Vitamin D3 group ([1]; Venn overlap, FIG. 2 / FIG. 3): ~46% | Expression pattern Myosin, light chain kinase (Mylk) ([1]; gastrocnemius, microarray signal, HU control 749): 786 | Expression pattern Tropomyosin 1 (Tpm1) ([1]; gastrocnemius, microarray signal, HU control 1179): 2199 | Expression pattern Titin (Tnt) ([1]; gastrocnemius, microarray signal, HU control 11353): 11354 | Expression pattern Myomesin 1 (Myom 1) ([1]; gastrocnemius, microarray signal, HU control 84697): 99099 | Differentially expressed muscle genes compared to HU [1]: Desmin; myoneurin; tropomyosin 1, alpha; tropomyosin | Muscle strength, knee extension (best value), change vs. baseline [2]: −24.8 Newton | Muscle strength, knee extension (mean value), change vs. baseline [2]: −23.7 Newton | Muscle strength, knee flexion (best value), change vs. baseline [2]: 2.4 Newton | Muscle strength, knee flexion (mean value), change vs. baseline [2]: 3.6 Newton | Muscle function, repeated sit-to-stand, change vs. baseline ([3]; 4 months): 0.30 s | Muscle function, timed-up-and-go, change vs. baseline ([3]; 4 months): -0.46 s

Vitamin D
Blood concentration of 25-hydroxyvitamin D after ingestion as dietary supplement [4]: about 200 nmol/L
